Patent publication US20220315577A1, “NEW EGFR INHIBITORS” (Hoffmann-La Roche Inc., priority 2019, published 2022)

Each molecule was assayed against T1, EGFR TMLRCS (T790M/L858R/C797S), BaF3-TMLRCS cell line (Homo sapiens, UniProt P00533, C797S/L858R/T790M) (assay: HTRF Phospho EGFR TMLRCS assay (cellular)). Conditions: BaF3-TMLRCS cells, 4 hours incubation, Phospho-EGFR HTRF readout.
T1 construct: host or cells: BaF3 (BaF3-TMLRCS, puromycin selection)
Format: cell-based
Procedure: HTRF Phospho EGFR TMLRCS Assay (Cellular)
BaF3-TMLRCS cell line were obtained from Crownbio (San Diego, Calif., USA). Cells were maintained at 37° C., 5% CO2 in RPMI ATCC (Gibco 31870)+2 mM Glutamine+0.5 μg/ml Puromycin supplemented with 10% fetal bovine serum (FBS) (Gibco).
Cells are transferred as above to Greiner Bio-One, Nr. 784-08 micro-titerplate at 20000 cells/well in 12.5 μl of growth medium/well after the plates had been pre-filled with 12.5 nl of DMSO solutions of the to be tested compounds (in dose response) or DMSO only. After spinning the plates at 300×g for 30 seconds the cells were incubated for 4 hours at 37 C, 5% CO2, 95% humidity. The cells were lysed by adding to the compound mix 4 μl/well of the supplemented lysis buffer (Cis-bio, Phospho-EGFR HTRF kit, 64EG1PEH), followed by incubation for 30 min at room temperature with shaking (400 rpm). The plates were then frozen and stored overnight at −80 C. On the next day and after thawing the plates, 4 μl of a mixture of anti-Phospho-EGFR Cryptate and of anti-Phospho-EGFR-d2 antibody solutions prepared in the supplied detection buffer was added to each well. The lidded plates were then incubated for 4 h at room temperature before reading the fluorescence emission at 616 and 665 nm using an Envision reader (Perkin Elmer). Data was analyzed in similar fashion as above using the normalized ratio of the 665 to 616 signals multiplied by 10000.

T1 sequence (P00533 25-1210 T790M/C797S/L858R): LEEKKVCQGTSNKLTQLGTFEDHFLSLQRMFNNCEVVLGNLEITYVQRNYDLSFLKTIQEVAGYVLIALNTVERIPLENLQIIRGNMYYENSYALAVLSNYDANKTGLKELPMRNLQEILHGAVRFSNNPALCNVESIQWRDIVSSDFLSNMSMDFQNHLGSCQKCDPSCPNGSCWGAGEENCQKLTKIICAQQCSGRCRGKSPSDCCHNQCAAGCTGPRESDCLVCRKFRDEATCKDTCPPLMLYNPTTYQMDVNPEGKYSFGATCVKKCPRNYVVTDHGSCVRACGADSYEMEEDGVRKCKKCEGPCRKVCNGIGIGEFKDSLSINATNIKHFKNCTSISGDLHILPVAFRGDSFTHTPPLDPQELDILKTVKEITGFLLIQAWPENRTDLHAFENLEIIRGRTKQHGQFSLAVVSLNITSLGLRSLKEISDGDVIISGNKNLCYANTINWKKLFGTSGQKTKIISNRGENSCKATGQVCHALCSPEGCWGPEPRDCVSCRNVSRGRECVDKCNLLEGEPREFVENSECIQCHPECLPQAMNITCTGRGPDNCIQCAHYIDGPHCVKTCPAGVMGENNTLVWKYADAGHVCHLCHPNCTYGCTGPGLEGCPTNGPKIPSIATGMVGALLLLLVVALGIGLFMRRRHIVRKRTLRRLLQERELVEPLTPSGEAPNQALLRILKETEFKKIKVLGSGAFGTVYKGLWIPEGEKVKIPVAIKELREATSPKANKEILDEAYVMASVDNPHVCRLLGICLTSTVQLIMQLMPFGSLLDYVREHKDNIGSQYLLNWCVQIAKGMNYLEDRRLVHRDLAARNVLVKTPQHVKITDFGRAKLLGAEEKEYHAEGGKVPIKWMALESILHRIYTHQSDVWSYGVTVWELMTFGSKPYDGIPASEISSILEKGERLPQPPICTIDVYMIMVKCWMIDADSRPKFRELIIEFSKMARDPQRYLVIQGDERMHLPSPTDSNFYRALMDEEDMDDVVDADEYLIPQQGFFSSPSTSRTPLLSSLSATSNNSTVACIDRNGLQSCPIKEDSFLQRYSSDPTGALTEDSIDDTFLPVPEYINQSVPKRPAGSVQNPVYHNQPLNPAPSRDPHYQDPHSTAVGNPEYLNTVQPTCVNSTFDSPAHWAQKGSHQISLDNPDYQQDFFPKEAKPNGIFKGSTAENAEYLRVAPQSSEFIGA

SMILES	IC50 [nM]
CCN1CCC(c2ccc(-c3cc(F)c4c(c3)C(=O)N(C(C(=O)Nc3nccs3)c3cc(F)ccc3O)C4)cc2)CC1 (racemic) [Example 1, (2RS)-2-[6-[4-(1-Ethyl-4-piperidyl)phenyl]-4-fluoro-1-oxo-isoindolin-2-yl]-2-(5-fluoro-2-hydroxy-phenyl)-N-thiazol-2-yl-acetamide]	12
CCN1CCC(c2ccc(-c3cc(F)c4c(c3Cl)C(=O)N(C(C(=O)Nc3nccs3)c3cc(F)ccc3O)C4)cc2)CC1 (racemic) [Example 2, (2RS)-2-[7-Chloro-6-[4-(1-ethyl-4-piperidyl)phenyl]-4-fluoro-1-oxo-isoindolin-2-yl]-2-(5-fluoro-2-hydroxy-phenyl)-N-thiazol-2-yl-acetamide]	11
O=C(Nc1nccs1)C(c1cc(F)ccc1O)N1Cc2c(F)cc(-c3ccc(C4CCN(CCF)CC4)cc3)cc2C1=O (racemic) [Example 3, (2RS)-2-[4-Fluoro-6-[4-[1-(2-fluoroethyl)-4-piperidyl]phenyl]-1-oxo-isoindolin-2-yl]-2-(5-fluoro-2-hydroxy-phenyl)-N-thiazol-2-yl-acetamide]	9
